Measured values: ChEMBL document CHEMBL3885881, “DrugMatrix”

Species: Rattus norvegicus
Assay: DrugMatrix - Regimen: Daily Repeat
Assay type: toxicity, organism-based, Sprague-Dawley
Design: regimen Daily Repeat, gender Male, age 6-8 weeks
Conditions: in vivo, po, route oral GAVAGE, vehicle .5 % CMC; for BASOPHIL / EOSINOPHIL / ERYTHROCYTE COUNT / HEMATOCRIT / HEMOGLOBIN / LEUKOCYTE COUNT / LYMPHOCYTE / MEAN CORPUSCULAR HEMOGLOBIN / MEAN CORPUSCULAR HEMOGLOBIN CONCENTRATION / MEAN CORPUSCULAR VOLUME / MONOCYTE / NEUTROPHIL / PLATELET COUNT: tissue Blood; for ALANINE AMINOTRANSFERASE / ALBUMIN / ALKALINE PHOSPHATASE / ASPARTATE AMINOTRANSFERASE / BLOOD UREA NITROGEN / CHLORIDE / CHOLESTEROL / CREATINE PHOSPHOKINASE / CREATININE / GLUCOSE / PHOSPHORUS / POTASSIUM / SODIUM / TOTAL PROTEIN: tissue Plasma
[1] = 0 mg/kg, 72 h, dose level Control, time 3 day
[2] = 0 mg/kg, 120 h, dose level Control, time 5 day
[3] = 50 mg/kg, 72 h, dose level Low, time 3 day
[4] = 50 mg/kg, 120 h, dose level Low, time 5 day
[5] = 2000 mg/kg, 72 h, dose level High, time 3 day
[6] = 2000 mg/kg, 120 h, dose level High, time 5 day

In the case of `NC1CCN(c2nc3c(cc2F)c(=O)c(C(=O)O)cn3-c2ccc(F)cc2F)C1` (configuration not stated) [TOSUFLOXACIN], the BASOPHIL [1] was 0%, the EOSINOPHIL [1] was 0.4% and the “ERYTHROCYTE COUNT” value [1] was 6.43 x10E6/uL. The HEMATOCRIT [1] was 37.36%, the HEMOGLOBIN [1] was 13.98 G/DL and the “LEUKOCYTE COUNT” value [1] was 13 x10E3/uL. For the same compound, the LYMPHOCYTE [1] was 81.4%, the “MEAN CORPUSCULAR HEMOGLOBIN” value [1] was 21.9 pg and the “MEAN CORPUSCULAR HEMOGLOBIN CONCENTRATION” value [1] was 37.4 G/DL. For the same compound, the “MEAN CORPUSCULAR VOLUME” value [1] was 58.52 fL, the MONOCYTE [1] was 0.4% and the NEUTROPHIL [1] was 18%. The “PLATELET COUNT” value [1] was 1386 x10E3/uL, the “ALANINE AMINOTRANSFERASE” value [1] was 39.33 u/L and the ALBUMIN [1] was 3.57 G/DL. The “ALKALINE PHOSPHATASE” value [1] was 283.83 u/L, the “ASPARTATE AMINOTRANSFERASE” value [1] was 69.5 u/L and the “BLOOD UREA NITROGEN” value [1] was 14.83 mg/dL. For the same compound, the CHLORIDE [1] was 107.33 MEQ/L, the CHOLESTEROL [1] was 75.17 mg/dL and the “CREATINE PHOSPHOKINASE” value [1] was 107.67 u/L. It also gave a CREATININE [1] of 0.48 mg/dL, a GLUCOSE [1] of 172.5 mg/dL and a PHOSPHORUS [1] of 10.48 mg/dL. For the same compound, the POTASSIUM [1] was 6.9 MEQ/L, the SODIUM [1] was 152.33 MEQ/L and the “TOTAL PROTEIN” value [1] was 5.9 G/DL. For the same compound, the BASOPHIL [2] was 0%, the EOSINOPHIL [2] was 0.4% and the “ERYTHROCYTE COUNT” value [2] was 6.96 x10E6/uL. For the same compound, the HEMATOCRIT [2] was 41.12%, the HEMOGLOBIN [2] was 15.24 G/DL and the “LEUKOCYTE COUNT” value [2] was 11.06 x10E3/uL. For the same compound, the LYMPHOCYTE [2] was 88.6%, the “MEAN CORPUSCULAR HEMOGLOBIN” value [2] was 21.96 pg and the “MEAN CORPUSCULAR HEMOGLOBIN CONCENTRATION” value [2] was 37.1 G/DL. For the same compound, the “MEAN CORPUSCULAR VOLUME” value [2] was 59.12 fL, the MONOCYTE [2] was 0.2% and the NEUTROPHIL [2] was 10.8%. For the same compound, the “PLATELET COUNT” value [2] was 1155.8 x10E3/uL, the “ALANINE AMINOTRANSFERASE” value [2] was 36.33 u/L and the ALBUMIN [2] was 3.72 G/DL. For the same compound, the “ALKALINE PHOSPHATASE” value [2] was 340.33 u/L, the “ASPARTATE AMINOTRANSFERASE” value [2] was 68.33 u/L and the “BLOOD UREA NITROGEN” value [2] was 15 mg/dL. For the same compound, the CHLORIDE [2] was 108.17 MEQ/L, the CHOLESTEROL [2] was 74.67 mg/dL and the “CREATINE PHOSPHOKINASE” value [2] was 110.67 u/L. It also gave a CREATININE [2] of 0.47 mg/dL, a GLUCOSE [2] of 171.33 mg/dL and a PHOSPHORUS [2] of 10.05 mg/dL. The POTASSIUM [2] was 6.7 MEQ/L, the SODIUM [2] was 155.5 MEQ/L and the “TOTAL PROTEIN” value [2] was 6.33 G/DL. The BASOPHIL [3] was 0%, the EOSINOPHIL [3] was 0% and the “ERYTHROCYTE COUNT” value [3] was 6.96 x10E6/uL. The HEMATOCRIT [3] was 39.2%, the HEMOGLOBIN [3] was 14.2 G/DL and the “LEUKOCYTE COUNT” value [3] was 12.93 x10E3/uL. The LYMPHOCYTE [3] was 90%, the “MEAN CORPUSCULAR HEMOGLOBIN” value [3] was 20.4 pg and the “MEAN CORPUSCULAR HEMOGLOBIN CONCENTRATION” value [3] was 36.27 G/DL. The “MEAN CORPUSCULAR VOLUME” value [3] was 56.3 fL, the MONOCYTE [3] was 0% and the NEUTROPHIL [3] was 10%. The “PLATELET COUNT” value [3] was 1074.33 x10E3/uL, the “ALANINE AMINOTRANSFERASE” value [3] was 36.67 u/L and the ALBUMIN [3] was 3.4 G/DL. The “ALKALINE PHOSPHATASE” value [3] was 240 u/L, the “ASPARTATE AMINOTRANSFERASE” value [3] was 66.33 u/L and the “BLOOD UREA NITROGEN” value [3] was 13 mg/dL. The CHLORIDE [3] was 106.33 MEQ/L, the CHOLESTEROL [3] was 63 mg/dL and the “CREATINE PHOSPHOKINASE” value [3] was 121.33 u/L. The CREATININE [3] was 0.53 mg/dL, the GLUCOSE [3] was 176.67 mg/dL and the PHOSPHORUS [3] was 10.7 mg/dL. For the same compound, the POTASSIUM [3] was 6.8 MEQ/L, the SODIUM [3] was 151.33 MEQ/L and the “TOTAL PROTEIN” value [3] was 5.6 G/DL. The BASOPHIL [4] was 0%, the EOSINOPHIL [4] was 0% and the “ERYTHROCYTE COUNT” value [4] was 6.08 x10E6/uL. The HEMATOCRIT [4] was 34.23%, the HEMOGLOBIN [4] was 12.7 G/DL and the “LEUKOCYTE COUNT” value [4] was 19.4 x10E3/uL. The LYMPHOCYTE [4] was 93.33%, the “MEAN CORPUSCULAR HEMOGLOBIN” value [4] was 21 pg and the “MEAN CORPUSCULAR HEMOGLOBIN CONCENTRATION” value [4] was 37.13 G/DL. For the same compound, the “MEAN CORPUSCULAR VOLUME” value [4] was 56.57 fL, the MONOCYTE [4] was 0% and the NEUTROPHIL [4] was 6.67%. The “PLATELET COUNT” value [4] was 1222.33 x10E3/uL, the “ALANINE AMINOTRANSFERASE” value [4] was 34 u/L and the ALBUMIN [4] was 3.43 G/DL. The “ALKALINE PHOSPHATASE” value [4] was 218.33 u/L, the “ASPARTATE AMINOTRANSFERASE” value [4] was 56.33 u/L and the “BLOOD UREA NITROGEN” value [4] was 11 mg/dL. The CHLORIDE [4] was 108 MEQ/L, the CHOLESTEROL [4] was 63.33 mg/dL and the “CREATINE PHOSPHOKINASE” value [4] was 106.33 u/L. The CREATININE [4] was 0.5 mg/dL, the GLUCOSE [4] was 169.67 mg/dL and the PHOSPHORUS [4] was 10.13 mg/dL. The POTASSIUM [4] was 6.4 MEQ/L, the SODIUM [4] was 152 MEQ/L and the “TOTAL PROTEIN” value [4] was 5.67 G/DL. For the same compound, the BASOPHIL [5] was 0%, the EOSINOPHIL [5] was 0% and the “ERYTHROCYTE COUNT” value [5] was 6.75 x10E6/uL. The HEMATOCRIT [5] was 40.45%, the HEMOGLOBIN [5] was 14.85 G/DL and the “LEUKOCYTE COUNT” value [5] was 13.75 x10E3/uL. The LYMPHOCYTE [5] was 88.5%, the “MEAN CORPUSCULAR HEMOGLOBIN” value [5] was 22.05 pg and the “MEAN CORPUSCULAR HEMOGLOBIN CONCENTRATION” value [5] was 36.65 G/DL. For the same compound, the “MEAN CORPUSCULAR VOLUME” value [5] was 59.95 fL, the MONOCYTE [5] was 0% and the NEUTROPHIL [5] was 11.5%. For the same compound, the “PLATELET COUNT” value [5] was 1313.5 x10E3/uL, the “ALANINE AMINOTRANSFERASE” value [5] was 30.33 u/L and the ALBUMIN [5] was 3.63 G/DL. For the same compound, the “ALKALINE PHOSPHATASE” value [5] was 215 u/L, the “ASPARTATE AMINOTRANSFERASE” value [5] was 58.67 u/L and the “BLOOD UREA NITROGEN” value [5] was 11.33 mg/dL. The CHLORIDE [5] was 106.67 MEQ/L, the CHOLESTEROL [5] was 79 mg/dL and the “CREATINE PHOSPHOKINASE” value [5] was 134.33 u/L. It also gave a CREATININE [5] of 0.5 mg/dL, a GLUCOSE [5] of 175 mg/dL and a PHOSPHORUS [5] of 11.67 mg/dL. The POTASSIUM [5] was 7.4 MEQ/L, the SODIUM [5] was 153.33 MEQ/L and the “TOTAL PROTEIN” value [5] was 6.17 G/DL. For the same compound, the BASOPHIL [6] was 0%, the EOSINOPHIL [6] was 0.33% and the “ERYTHROCYTE COUNT” value [6] was 6.63 x10E6/uL. The HEMATOCRIT [6] was 39.83%, the HEMOGLOBIN [6] was 14.4 G/DL and the “LEUKOCYTE COUNT” value [6] was 13.93 x10E3/uL. The LYMPHOCYTE [6] was 93.67%, the “MEAN CORPUSCULAR HEMOGLOBIN” value [6] was 21.83 pg and the “MEAN CORPUSCULAR HEMOGLOBIN CONCENTRATION” value [6] was 36.23 G/DL. The “MEAN CORPUSCULAR VOLUME” value [6] was 60.27 fL, the MONOCYTE [6] was 0% and the NEUTROPHIL [6] was 6%. For the same compound, the “PLATELET COUNT” value [6] was 1193.67 x10E3/uL, the “ALANINE AMINOTRANSFERASE” value [6] was 45.67 u/L and the ALBUMIN [6] was 3.47 G/DL. For the same compound, the “ALKALINE PHOSPHATASE” value [6] was 280 u/L, the “ASPARTATE AMINOTRANSFERASE” value [6] was 64.67 u/L and the “BLOOD UREA NITROGEN” value [6] was 9.67 mg/dL. The CHLORIDE [6] was 108 MEQ/L, the CHOLESTEROL [6] was 65.67 mg/dL and the “CREATINE PHOSPHOKINASE” value [6] was 144.33 u/L. It also gave a CREATININE [6] of 0.5 mg/dL, a GLUCOSE [6] of 162.33 mg/dL and a PHOSPHORUS [6] of 9.47 mg/dL. The POTASSIUM [6] was 6.3 MEQ/L, the SODIUM [6] was 152.67 MEQ/L and the “TOTAL PROTEIN” value [6] was 5.8 G/DL.
